Reference: US4028383A, “Indolopyrones having antiallergic activity” (Warner-Lambert Company, priority 1975, dated 1977)

System: PCA reaction
Experiment: passive cutaneous anaphylaxis (PCA) procedure
Format: in vivo, male rats
Details: for % Inhibition: rats, 30 minutes prior to challenge
Description: In this procedure, male rats, between 180 and 200 grams in weight are passively sensitized forty-eight or seventy-two hours prior to test with rat sera containing reagintype antibodies. These sera are injected intradermally in four separate sites, two on each side of the ventral midline. Dose volume is 0.1 ml.
On the test-day animals receive drug or vehicle (placebo) 30 minutes prior to challenge. Test compounds are given i.p. on an mg/kg basis; usual volume is 0.5 ml/100 g body weight. Controls receive the vehicle, on the same weight-volume basis.
The challenging dose of 1.0 ml of Antigen-Evans Blue is administered i.v. This is prepared from either Ovalbumin or dinitrophenylated bovine gamma globulin, 10 mg, together with 5 ml of 0.5% Evans Blue, U.S.P., and 5 ml of normal saline. At 30 minutes after challenge each rat is sacrificed. A section of skin that includes the four sensitizing injection sites is removed.
Reaction is indicated by a blue coloration of the site and scored on the basis of color intensity. Size of the site is also reported.
Data is reported as the arithmetic mean score of a specific site for that group of five animals; the size of the spot is also reported as the mean for the group.
The relation between dilution of antibody and mean spot diameters approximates a straight line which is constructed by the method of least squares for the control animals. The maximum antibody concentration is set as "100% reactivity", with the extrapolated "zero" antibody concentration being 0%. Using this line the diameter at the highest antibody concentrations in any treated group is expressed as a percent of the control, i.e. "% inhibition." The treatment is judged "active" if the inhibition is 50% or greater.

For `Cn1c2ccccc2c2oc(C(=O)O)cc(=O)c21` [Example 5, 4,5-dihydro-5-methyl-4-oxopyrano[3,2-b]indole-2-carboxylic acid], the “% Inhibition” value (1.0 mg/kg I.P.) was 30%, the “% Inhibition” value (5.0 mg/kg I.P.) was 100% and the “% Inhibition” value (10.0 mg/kg I.P.) was 100%. The “% Inhibition” value (25.0 mg/kg I.P.) was 100% and the “antiallergic activity in passive cutaneous anaphylaxis” value (male rats, i.p. 30 minutes prior to challenge) was “highly effective as an antiallergic”.
